# Assay results: US5444049A, “Peptide compounds derived from boronic acid” (Adir et Compagnie, priority 1993, dated 1995)
# pIC50: −log10 of the molar value. Like-named read-outs stand apart in the source and are kept apart here.
# Experiments:
# OFA rats [1] = assay: Anticoagulant activity ex vivo, intravenous administration, activated cephalin time; assay type: in vivo, rat; conditions: 0.5 mg/kg i.v.
# Description: OFA rats, fasted or otherwise, are anesthetized with pentobarbital (60 mg/kg i.p.). The carotid artery and the jugular vein are exposed and catheterized. The catheters are flushed with citrated (1/40) physiological solution. After installation of the catheters, a sample of 1.5 cm^3 of arterial blood is withdrawn into 0.109M citrate (1/9).
# 30 minutes later, the test product is administered i.v. in a volume of 1 ml.
# Arterial blood samples (1.5 ml) are then withdrawn at 1 minute 30 sec and 5, 15, 30 and 60 minutes.
# As each sample is withdrawn, 1.5 ml of citrated physiological solution are reinjected into the animal via the carotid.
# The blood tubes are centrifuged for 15 minutes at 3000 g (preparation of plasma). 100 μl of plasma are incubated with 100 gl of activated cephalin. The time of onset of the coagulation phenomenon is measured after adding 100 μl of calcium.
# The compounds of the invention, tested at a dose of 0.5 mg/kg, increase the activated cephalin time (ACT) in a dose-dependent manner. […] The increase in ACT noted with the compounds of the invention is still significant 60 minutes after their administration. The results are reproduced in the following table, and show the factors by which the coagulation time is increased.
# [2] = test system: thrombin time of human platelet-poor plasma; assay: Anticoagulant activity: thrombin time in human plasma; assay type: biochemical; conditions: for Man CTT2 (concentration which multiplies the thrombin time by 2): human plasma, 2 minutes at 37° C.
# Description: (§1) In the presence of a standard quantity of thrombin, a normal plasma coagulates in a defined and constant time, termed the thrombin time (TT). Any prolongation of this time reflects an abnormality of fibrin formation (coagulation).
# (§2) Sprague-Dawley rats are anesthetized with pentobarbital sodium (60 mg/kg i.p.), the carotid artery is catheterized and blood samples are taken into trisodium citrate solution (0.109M). A platelet-poor plasma is obtained by centrifugation of the blood samples (3000 g, 15 minutes). Samples of venous blood are also taken from humans at the bend of the arm. Anticoagulation of the samples and preparation of platelet-poor plasma are identical to those carried out with rat blood.
# (§3) The thrombin time is obtained with Prest thrombin reagent and determined automatically using a coagulometer.
# (§4) The antagonist or the solvent (10 μl) is added to the plasma (90 μl) and then incubated for 2 minutes at 37° C. 100 µl of thrombin are added as the chronometer is started.
# (§5) Under these conditions, the TT values obtained in the control plasma are of the order of 30 seconds in rats and 20 seconds in humans. The activity of an antagonist is evaluated by its capacity to prolong this thrombin time relative to the control.
# (§6) Under these conditions, the compounds of the invention permit a prolongation of the thrombin time of 50-fold and more. The effect of the inhibitors is measured, and the concentration which multiplies the thrombin time by 2 (CTT2) is determined.
# OFA rats [3] = assay: Anticoagulant activity ex vivo, intravenous administration, activated cephalin time; assay type: in vivo, rat; conditions: 0.5 mg/kg i.v., 15.5 min
# OFA rats [4] = assay: Anticoagulant activity ex vivo, oral administration (conscious rats), thrombin time; assay type: in vivo, rat; conditions: 10 mg/kg orally
# Description: Fasted OFA rats are anesthetized with ether. The cordal artery is exposed and catheterized. The catheter is flushed with citrated (1/40) physiological solution. After installation of the catheter, the animal is placed in a restraining cage and 1.5 cm^3 of arterial blood are withdrawn into 0.109M citrate (1/9).
# 1 hour after the animal has awoken, the test products are administered orally at a single dose of 10 mg/kg.
# Arterial blood samples (1.5 ml) are then withdrawn at 30 minutes, 60 minutes and 2 hours.
# As each sample is withdrawn, 1.5 ml of physio-logical solution are reinjected into the animals.
# The blood tubes are centrifuged for 15 minutes at 3000 g for preparation of the plasma. The time of onset of the coagulation phenomenon is measured after adding Prest thrombin.
# The results are reproduced in the following table, and show the factors by which the thrombin time is increased.
# [5] = test system: thrombin time of rat platelet-poor plasma; assay: Anticoagulant activity: thrombin time in rat plasma; assay type: biochemical; conditions: for Rat CTT2 (concentration which multiplies the thrombin time by 2): rat plasma, 2 minutes at 37° C.
# Description: as §1, §2, §3, §4, §5, §6
# [6] = biological target: T1, purified human activated factor X (Homo sapiens, UniProt P00742); assay: Inhibition of activated factor X; assay type: biochemical; conditions: substrate S 2765
# T1 construct: purchased Stago
# Description: (§7) To evaluate in vitro the selectivity of these products with respect to different serine proteases of fibrinolysis and of coagulation, the same protocol was applied to purified human plasmin (2 nM, Stago), to purified human activated protein C (2 nM, Stago), to purified human activated factor X (2 nM, Stago), to tissue plasminogen activator (2 nM, Calbiochem), to purified human urokinase (2 nM, Sigma) and to purified human plasma kallikrein (2 nM, Calbiochem), using different peptidyl para-nitroanilides as substrate: <Glu-Phe-Lys-pNA (0.50 mM, S 2403, Kabi) for plasmin, N-Cbo-Arg-Gly-Arg-pNA (0.38 mM, S 2765, Kabi) for factor Xa, <Glu-Pro-Arg-pNa (0.52 mM, S 2366, Kabi) for activated protein C, H-D-Pro-Phe-Arg-pNa (0.45 mM, S 2302, Kabi) for kallikrein, H-D-Ile-Pro-Arg-pNA (0.48 mM, S 2288, Kabi), <Glu-Gly-Arg-pNA (0.56 mM, S 2444, Kabi).
# (§8) Inhibitors, enzymes and substrates are diluted in the same buffer ([…] buffer, pH 7.4, containing 0.12M sodium chloride and 0.05% of bovine serum albumin), and then distributed in a polystyrene microplate in a volume of […].
# (§9) The fibrin formed by thrombin or by the para-nitroaniline liberated by the action of the serine protease is measured spectrophotometrically at 405 nm after 15 to 30 minutes of reaction at 20° C.
# purified human urokinase = biological target: T2, purified human urokinase (Homo sapiens, UniProt P00749); assay: Inhibition of urokinase; assay type: biochemical; conditions: peptidyl para-nitroanilide substrate
# T2 construct: purchased Sigma
# Description: as §7, §8, §9
# [7] = biological target: T3, tissue plasminogen activator (Homo sapiens, UniProt P00750); assay: Inhibition of tissue plasminogen activator; assay type: biochemical; conditions: peptidyl para-nitroanilide substrate
# T3 construct: purchased Calbiochem
# Description: as §7, §8, §9
# [8] = biological target: T4, purified human activated protein C (Homo sapiens, UniProt P04070); assay: Inhibition of activated protein C; assay type: biochemical; conditions: substrate S 2366
# T4 construct: purchased Stago
# Description: as §7, §8, §9
# purified human plasmin = biological target: T5, purified human plasmin (Homo sapiens, UniProt P00747); assay: Inhibition of plasmin; assay type: biochemical; conditions: substrate S 2403
# T5 construct: purified human plasmin (2 nM, Stago); purchased Stago
# Description: as §7, §8, §9
# human thrombin = biological target: T6, human thrombin (Homo sapiens, UniProt P00734); assay: Inhibition of human thrombin (fibrinogen or S2238 substrate); assay type: biochemical; conditions: for pIC50: 20° C.; for selectivity with respect to the serine proteases of coagulation and of fibrinolysis compared with DUP 714: thrombin versus other serine proteases; for potency on human thrombin compared with DUP 714: with respect to human fibrinogen
# T6 construct: human thrombin (Sigma, specific activity 3230 NIHU/mg); purchased Sigma
# Description: To evaluate in vitro the inhibitory activity of the boro-arginine products with respect to human thrombin (Sigma, specific activity 3230 NIHU/mg), purified human fibrinogen ([…], Stago) (Fg) or the chromogenic substrate H-D-Phe-Pip-Arg-pNa ([…], S2238, Kabi) was added to a given quantity of thrombin (0.7 or 2 nM) incubated beforehand with or without the inhibitor under test (20° C., 10 minutes).
# as §8, §9
# [9] = biological target: T7, purified human plasma kallikrein (Homo sapiens, UniProt P03952); assay: Inhibition of plasma kallikrein; assay type: biochemical; conditions: substrate S 2302; read-out: IC50 Kalli
# T7 construct: to purified human plasma kallikrein (2 nM, Calbiochem); purchased Calbiochem
# Description: as §7, §8, §9
# dogs [10] = assay: Thrombopenia p.o. in dogs, platelet count; assay type: in vivo, dog
# Description: (§10) The products were administered orally to dogs.2 hours and 4 hours after the treatment, and blood was withdrawn via the intravenous route. The plasma is prepared, platelets counted and the thrombin time test is carried out.
# dogs [11] = assay: Anticoagulant activity p.o. in dogs, thrombin time; assay type: in vivo, dog
# Description: as §10
# [12] = chromogenic substrate S2238, read-out: IC50 Thrombin S2238
# [13] = substrate purified human fibrinogen, read-out: IC50 Thrombin Fg
# T5 sequence (P00747 581-810 limits assumed): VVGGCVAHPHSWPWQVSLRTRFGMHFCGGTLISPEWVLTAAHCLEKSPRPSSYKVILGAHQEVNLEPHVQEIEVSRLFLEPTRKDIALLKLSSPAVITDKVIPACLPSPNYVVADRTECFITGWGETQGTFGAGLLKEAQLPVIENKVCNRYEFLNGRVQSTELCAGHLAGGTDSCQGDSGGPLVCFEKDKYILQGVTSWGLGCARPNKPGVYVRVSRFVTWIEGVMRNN
# T5 sequence (P00747 97-580 limits assumed): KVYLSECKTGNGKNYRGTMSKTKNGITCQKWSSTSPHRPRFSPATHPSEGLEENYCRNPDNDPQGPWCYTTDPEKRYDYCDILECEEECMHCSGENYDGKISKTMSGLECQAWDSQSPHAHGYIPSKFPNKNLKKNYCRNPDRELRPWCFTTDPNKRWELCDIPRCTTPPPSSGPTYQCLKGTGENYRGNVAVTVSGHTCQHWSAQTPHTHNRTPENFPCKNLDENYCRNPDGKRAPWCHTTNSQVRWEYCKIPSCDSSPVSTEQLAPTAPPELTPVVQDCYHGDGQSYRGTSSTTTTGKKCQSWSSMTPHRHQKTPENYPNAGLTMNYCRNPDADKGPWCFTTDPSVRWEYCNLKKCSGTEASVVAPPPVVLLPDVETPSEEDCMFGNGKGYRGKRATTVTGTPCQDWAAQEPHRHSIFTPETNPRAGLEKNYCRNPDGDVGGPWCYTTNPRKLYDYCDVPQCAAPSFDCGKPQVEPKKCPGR
# T3 sequence (P00750 36-562): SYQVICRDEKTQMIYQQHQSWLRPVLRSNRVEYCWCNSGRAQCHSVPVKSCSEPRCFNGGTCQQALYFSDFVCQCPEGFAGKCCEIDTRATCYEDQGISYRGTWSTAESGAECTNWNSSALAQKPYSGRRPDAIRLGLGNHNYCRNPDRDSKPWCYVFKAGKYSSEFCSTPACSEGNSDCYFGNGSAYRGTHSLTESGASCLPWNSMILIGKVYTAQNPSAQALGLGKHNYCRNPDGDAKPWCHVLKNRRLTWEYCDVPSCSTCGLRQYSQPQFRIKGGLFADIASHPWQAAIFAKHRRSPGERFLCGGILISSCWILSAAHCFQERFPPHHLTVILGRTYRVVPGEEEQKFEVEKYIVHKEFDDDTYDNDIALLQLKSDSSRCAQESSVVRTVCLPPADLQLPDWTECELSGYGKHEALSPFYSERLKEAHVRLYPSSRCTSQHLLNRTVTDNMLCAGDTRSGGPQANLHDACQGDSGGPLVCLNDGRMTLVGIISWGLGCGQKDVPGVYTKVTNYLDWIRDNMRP
# T1 sequence (P00742 235-488 limits assumed): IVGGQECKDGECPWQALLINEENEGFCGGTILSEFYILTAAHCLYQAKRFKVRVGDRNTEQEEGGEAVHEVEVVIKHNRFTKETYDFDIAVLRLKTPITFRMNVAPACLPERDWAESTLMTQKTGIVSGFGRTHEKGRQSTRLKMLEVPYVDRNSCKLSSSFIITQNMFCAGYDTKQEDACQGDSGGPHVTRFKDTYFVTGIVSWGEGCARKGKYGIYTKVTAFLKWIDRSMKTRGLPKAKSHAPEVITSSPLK
# T1 sequence (P00742 41-179 limits assumed): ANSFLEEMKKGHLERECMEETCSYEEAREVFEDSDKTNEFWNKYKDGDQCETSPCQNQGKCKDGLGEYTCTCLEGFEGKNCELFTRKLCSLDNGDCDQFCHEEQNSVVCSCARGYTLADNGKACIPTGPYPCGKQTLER
# T7 sequence (P03952 391-638 limits assumed): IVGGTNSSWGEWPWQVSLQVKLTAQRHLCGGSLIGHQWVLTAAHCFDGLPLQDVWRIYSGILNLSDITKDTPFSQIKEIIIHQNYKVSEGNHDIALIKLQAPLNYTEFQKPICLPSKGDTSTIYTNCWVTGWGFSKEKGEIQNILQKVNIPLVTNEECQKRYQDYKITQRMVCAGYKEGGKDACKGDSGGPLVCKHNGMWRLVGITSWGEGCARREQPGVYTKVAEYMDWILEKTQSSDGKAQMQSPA
# T7 sequence (P03952 20-390 limits assumed): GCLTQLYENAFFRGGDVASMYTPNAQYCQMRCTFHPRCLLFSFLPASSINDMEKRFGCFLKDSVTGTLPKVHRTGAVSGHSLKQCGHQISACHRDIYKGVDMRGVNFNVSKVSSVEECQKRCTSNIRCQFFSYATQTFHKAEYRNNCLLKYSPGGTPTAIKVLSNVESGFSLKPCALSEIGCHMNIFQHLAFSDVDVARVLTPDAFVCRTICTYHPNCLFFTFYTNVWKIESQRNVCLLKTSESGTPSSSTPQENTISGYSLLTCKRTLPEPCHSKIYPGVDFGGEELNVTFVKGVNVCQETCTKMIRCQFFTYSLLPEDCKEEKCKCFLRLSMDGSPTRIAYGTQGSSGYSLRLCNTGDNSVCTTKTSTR
# T4 sequence (P04070 212-461 limits assumed): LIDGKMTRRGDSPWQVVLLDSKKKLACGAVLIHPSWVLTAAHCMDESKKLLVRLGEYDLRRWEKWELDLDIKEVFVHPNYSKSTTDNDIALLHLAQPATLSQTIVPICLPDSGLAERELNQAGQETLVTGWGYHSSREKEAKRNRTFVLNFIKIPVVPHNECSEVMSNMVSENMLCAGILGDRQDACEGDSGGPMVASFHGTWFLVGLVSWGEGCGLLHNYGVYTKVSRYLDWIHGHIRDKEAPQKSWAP
# T4 sequence (P04070 43-197 limits assumed): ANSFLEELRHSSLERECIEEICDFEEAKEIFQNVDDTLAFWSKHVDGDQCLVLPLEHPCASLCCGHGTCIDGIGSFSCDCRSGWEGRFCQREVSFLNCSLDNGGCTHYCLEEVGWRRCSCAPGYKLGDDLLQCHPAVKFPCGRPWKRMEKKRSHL
SMILES,pIC50 [6],pIC50 (purified human urokinase),pIC50 [7],pIC50 [8],pIC50 (purified human plasmin),pIC50 (human thrombin; [12]),pIC50 (human thrombin; [13]),selectivity with respect to the serine proteases of coagulation and of fibrinolysis compared with DUP 714 (human thrombin),pIC50 [9],"Change in platelet count (% of control) (dogs [10]; 5 mg/kg orally, 2 hr) [%]",factor by which the coagulation time (ACT) is increased (OFA rats [1]; 5 min),factor by which the coagulation time (ACT) is increased (OFA rats [1]; 15 min),factor by which the coagulation time (ACT) is increased (OFA rats [1]; 30 min),factor by which the coagulation time (ACT) is increased (OFA rats [1]; 60 min),Man CTT2 (concentration which multiplies the thrombin time by 2) [2] [µM],factor by which the coagulation time (ACT) is increased (OFA rats [3]),factor by which the thrombin time is increased (OFA rats [4]; 0.5 hours),factor by which the thrombin time is increased (OFA rats [4]; 1 hour),factor by which the thrombin time is increased (OFA rats [4]; 2 hours),Rat CTT2 (concentration which multiplies the thrombin time by 2) [5] [µM],other results
"CC(=O)NC(Cc1ccccc1)C(=O)N1C(C(=O)NC(CCCNC(=N)N)B(O)O)CC2CCCCC21.CC(=O)O (mixture of isomers) [Ex. 3, 1-(R)-[(Ac-(RS)Phe-Phi)amino]-4-guanidinobutylboronic acid acetate]",–,–,–,–,–,–,–,–,–,–,4.7,3.6,2.6,2.0,0.07,7.3,7.7,7.1,5.6,0.23,factor by which concentration for doubling the thrombin time is less than DUP 714 ([2]; humans): 2.5
"CC(=O)NC(Cc1ccccc1)C(=O)N1C2CCC(CC2)C1C(=O)NC(CCCNC(=N)N)B(O)O.CC(=O)O (mixture of isomers) [Ex. 23, 1-(R)-[(Ac-(RS)Phe-Abo)amino]-4-guanidinobutylboronic acid acetate]",–,–,–,–,–,–,–,–,–,–,–,–,–,–,0.11,–,–,–,–,0.17,concentration for doubling the thrombin time relative to DUP 714 ([5]; rats): one half
"CC(=O)N[C@H](Cc1ccccc1)C(=O)N1CCC[C@H]1C(=O)N[C@@H](CCCN=C(N)N)B(O)O [DUP 714, Ac-(D)Phe-Pro-Arg-boronic acid, reference compound]",7.39,7.62,8.10,7.77,7.55,–,–,–,8.10,–,3.4,2.0,1.7,1.4,0.18,7.6,4.0,3.7,3.9,0.32,"thrombopenia (dogs [10]; 2.5 mg/kg orally): marked thrombopenia; Change in platelet count (% of control) (dogs [10]; 2.5 mg/kg orally, 2 hr): -32%; Change in platelet count (% of control) (dogs [10]; 2.5 mg/kg orally, 4 hr): -16%; Increase factor TT (dogs [11]; 2.5 mg/kg orally, 2 hr): 7; Increase factor TT (dogs [11]; 2.5 mg/kg orally, 4 hr): 2"
"CC(=O)N[C@H](Cc1ccccc1)C(=O)N(CC(=O)N[C@@H](CCCNC(=N)N)B(O)O)C1CCC1.CC(=O)O [Ex. 25, 1-(R)-{[Ac-(R)Phe-(N-cyclobutyl)Gly]amino}-4-guanidinobutylboronic acid acetate]",6.45,5.79,7.85,6.68,6.09,8.70,9.35,greater selectivity,7.12,–,–,–,–,–,–,–,–,–,–,–,potency on human thrombin compared with DUP 714 (human thrombin): more potent inhibitors of human thrombin than the reference compound

# Now from value to compound, other results behind:
pIC50 [6],pIC50 (purified human urokinase),pIC50 [7],pIC50 [8],pIC50 (purified human plasmin),pIC50 (human thrombin; [12]),pIC50 (human thrombin; [13]),selectivity with respect to the serine proteases of coagulation and of fibrinolysis compared with DUP 714 (human thrombin),pIC50 [9],"Change in platelet count (% of control) (dogs [10]; 5 mg/kg orally, 2 hr) [%]",SMILES,factor by which the coagulation time (ACT) is increased (OFA rats [1]; 5 min),factor by which the coagulation time (ACT) is increased (OFA rats [1]; 15 min),factor by which the coagulation time (ACT) is increased (OFA rats [1]; 30 min),factor by which the coagulation time (ACT) is increased (OFA rats [1]; 60 min),Man CTT2 (concentration which multiplies the thrombin time by 2) [2] [µM],factor by which the coagulation time (ACT) is increased (OFA rats [3]),factor by which the thrombin time is increased (OFA rats [4]; 0.5 hours),factor by which the thrombin time is increased (OFA rats [4]; 1 hour),factor by which the thrombin time is increased (OFA rats [4]; 2 hours),Rat CTT2 (concentration which multiplies the thrombin time by 2) [5] [µM],other results
5.76,5.50,7.42,6.83,6.13,8.60,9.10,greater selectivity,6.98,-4,"CC(=O)NC(Cc1ccccc1)C(=O)N(CC(=O)N[C@@H](CCCNC(=N)N)B(O)O)C1CCCC1.CC(=O)O (mixture of isomers) [Ex. 27, 1-(R)-{[Ac-(RS)Phe-(N-cyclopentyl)Gly]amino}-4-guanidinobutylboronic acid acetate]",2.3,1.7,1.5,1.3,0.20,5,–,–,–,–,"Change in platelet count (% of control) (dogs [10]; 5 mg/kg orally, 4 hr): -1%; Increase factor TT (dogs [11]; 5 mg/kg orally, 2 hr): 11; Increase factor TT (dogs [11]; 5 mg/kg orally, 4 hr): 3"
6.65,5.74,7.33,7.09,6.35,8.70,9.34,greater selectivity,7.04,-4,"CC(=O)N[C@H](Cc1ccccc1)C(=O)N(CC(=O)N[C@@H](CCCN=C(N)N)B(O)O)C1CCCC1.CC(=O)O [Ex. 28, 1-(R)-{[Ac-(R)Phe-(N-cyclopentyl)Gly]amino}-4-guanidinobutylboronic acid acetate]",–,–,–,–,0.19,–,–,–,–,–,"potency on human thrombin compared with DUP 714 (human thrombin): more potent inhibitors of human thrombin than the reference compound; Change in platelet count (% of control) (dogs [10]; 5 mg/kg orally, 4 hr): +1%; Increase factor TT (dogs [11]; 5 mg/kg orally, 2 hr): 11; Increase factor TT (dogs [11]; 5 mg/kg orally, 4 hr): 2"
